We go through two molecules from patent US20250025615A1, “NEW DIALYSIS FLUID” (GAMBRO LUNDIA AB, priority 2021, published 2025).

Assay type in all cases: cell-based, human
One test relates to A172 (glioblastoma). In words: Study 2: cell viability (CellTiter-Glo) in DMEM without sodium pyruvate. Conditions: increase in BOHB concentration (0, 4, 12 mM), no pyruvate, 3 d. As to the method:
(§1) Cell lines established from human colon carcinoma (HCT15, NCI-H508 and COLO205), renal cell carcinoma (769-P, 786-O and RCC4) and glioblastoma (LN-18, A-172 and U-118 MG) were selected for the analysis. All cell lines were obtained from American Type Culture Collection (ATCC, LGC standards, UK) except for RCC4 and HCT15 that was purchased from Sigma-Aldrich (Merck, Germany). In addition, primary human renal cell carcinoma (RCC) cells isolated from patient nephrectomies were included in the study. The culture conditions were as recommended by American Type Culture Collection (ATCC) were followed, that is to grow cells in DMEM medium with the addition of 1 mM sodium pyruvate, which was also added to the RPMI-1640 medium in order to keep the conditions more similar 769-P, RCC4, LN-18, A-172, U-118 MG and the primary RCC cells were cultured in DMEM high glucose medium, while 786-O HCT15, NCI-H508 and COLO205 were cultured in RPMI-1640 medium according to the recommendations from ATCC. […]
(§2) CellTiter-Glo Luminescent cell viability assay (Promega) was used as a readout of viability.
(§3) For each cell line, optimal number of cells as determined above were seeded into 96-well plates on day 0. […] After 3d incubation in test condition medium, with daily medium changes, cell viability was determined using the CellTiter-Glo viability test. […]

The test system of test [1] is RCC4 (renal cell carcinoma). Described as above. Conditions: increase in BOHB concentration (0, 4, 12 mM), no pyruvate, 3 d. As for the experimental part:
as §1, §2, §3

The next test has as its system RCC4 renal carcinoma. In words: Example 2: growth in Medium A-C with or without ketones (CellTiter-Glo). Conditions: nutrient restricted Medium C, FIG. 11. As for the experimental part: To study the effect of a nutrient restricted ketogenic environment on cancer cell growth in vitro, three different cell culture media were formulated. Medium A was full RPMI1640 medium that the cell lines routinely are cultured in. Medium B was used as an approximation of the conditions found in normal human serum. The levels of glucose, glutamine, serine, glycine and arginine were adjusted to match normal physiological levels found in human serum. These nutrients were selected based on their reported use as energy source and effects on cancer cell metabolic state. Medium C was used to emulate the ketogenic nutrient restricted Cancer Dialysis condition. Here, the levels of the selected nutrients were reduced to half of the physiological levels in Medium B, and the ketone body BOHB was added. […]
All cell lines were purchased from ATCC (ATCC, LGC standards) except for RCC4 that was from Sigma-Aldrich (Merck). […] Optimal seeding density was determined for each cell line in 96-well plates cultured for 3 days in standard cell culture medium. […]
In Medium B, to mimic physiological conditions, the levels of glutamine, serine, glycine, arginine and glucose were set to the median of measured levels in human serum, based on data from the Mayo Clinic Laboratories (https://www.mayocliniclabs.com/test-catalog/Clinical+and+Interpretive/9265). […]

For the next test, the system named is glioma cell line A172. In words: Example 2: culture in Medium A-C with BOHB and/or Acac (CellTiter-Glo). The following applies: for growth: normoxic, combined experiment 2-6, 16 mM BOHB or 8 mM Acac added separately, FIG. 9. As to the method: (§4) The ketone bodies acetoacetate (Acac), BOHB and acetone are produced by the liver during fasting or starvation. BOHB is the major ketone body in mammals, while Acac constitutes around 20%.
(§5) Cells were maintained in RPMI-1640 medium (31870-025 GIBCO) with the addition of 10% serum, 200 mM L-glutamine and 1% penicillin-streptomycin (PEST) in humidified chambers at 37° C. and 5% CO2. For hypoxic conditions (5% O2), cells were maintained in a Galaxy 14 S CO2 incubator (Eppendorf) where N2 was used to adjust the O2 level to 5%.
(§6) Medium B and C were prepared from RPMI1640 modified medium powder without L-glutamine, glucose and amino acids (R9010-01, US Biological Life Sciences). For 1L medium, 7.4 g powder was dissolved in 900 ml sterile water without heating and 2 g sodium bicarbonate was added. Amino acids listed in Table 5 were added to the same concentration as in full RPMI1640 medium (Table 5). After all additions, the medium was sterilized by filtering through 0.22 um membranes and divided into two bottles.
(§7) To model Cancer Dialysis conditions in Medium C, the levels of these nutrients were reduced to 50% of the physiological levels. As for Medium A, 1% PEST and 10% dialyzed serum were added to Medium B and C. Sodium pyruvate, that is a common addition in cell culture medium, was not present in any of the used media.
(§8) Stock solutions of DL-β-Hydroxybutyric acid sodium salt (H6501, Sigma Aldrich) and Lithium Acetoacetate (A8509, Sigma Aldrich) were prepared in water, sterile filtered, aliquoted and stored at −20° C. Lithium Chloride (L7026, Sigma Aldrich) was used as a control for the addition of Lithium in the Li-Acac.
(§9) CellTiter-Glo Luminescent cell viability assay (Promega) was used as a readout of cell numbers according to the manufacturers' instructions. In experiments shown in FIG. 7-8, double plates were seeded and treated. One set of plates was used for collection of medium for lactate measurement (see below) and the CellTiterGlo-assay. The other set of plates was frozen at −80° C. at the end of the experiment. The frozen plates were intended for the CyQuant cell proliferation assay (Thermo Fisher) that measures the amount of DNA per well. Analysis of the amounts of cells by both CellTiterGlo and CyQuant assays would ensure that effects of the culture conditions on viability or growth rate would not be concealed by simultaneous changes in ATP-levels per cell.
(§10) Next, it was decided to also include Acac in the study and analyze the viability of cells cultured in the presence of BOHB and Acac alone or in combination in Medium A-C. The experiment was performed at 21% and 5% O2. The experiments were made with glioma cell lines A172 and U118MG.
(§11) Being a chiral molecule, BOHB exists as two enantiomers, D-and L-BOHB. D-BOHB is normally produced and metabolized in humans. The BOHB-salt used in this study contains a mixture of 50:50 of D-and L-BOHB. In order to ensure a high presence of the active D-form, the total concentration of BOHB added was increased to 16 mM, giving a level of 8 mM D-BOHB. To keep the total concentration of active ketones constant, 8 mM Acac was used, and for the combination of both ketones, the levels were adjusted to 4 mM Acac and 8 mM BOHB (containing 4 mM D-BOHB).
(§12) The Acac available for in vitro use is in the form of a lithium salt. Since lithium itself can affect the viability of cancer cells [Cohen-Harazi et al., Anticancer Res 2020; 40:3831-3837], 8 mM LiCl was used as a control for the 8 mM Acac data point and 4 mM LiCl was used as a control for the 4 mM Acac/8 mM BOHB data.

For another test, the system named is glioma cell line U118MG. The test is described as above. As for the experimental part: as §4, §5, §6, §7, §8, §9, §10, §11, §12
The mark [2] stands for this setting: Medium A, normoxia and hypoxia, 16 mM BOHB alone.
The mark [3] stands for this setting: Medium C, 21 and 5% O2, 16 mM BOHB.
Where [4] appears, read: Medium A, normoxia and hypoxia, 8 mM Acac compared to 8 mM LiCl control.
Where [5] appears, read: Medium B, 21% O2, 8 mM Acac compared to 8 mM LiCl control.
The mark [6] stands for this setting: Medium C, 8 mM Acac alone compared to 8 mM LiCl control.

As to `CC(O)CC(=O)[O-].[Na+]` (racemic) [BOHB, DL-β-Hydroxybutyric acid sodium salt], the “proliferation of cells (cell viability)” value (with A172 (glioblastoma); in test [1]) was “suppresses the proliferation of cells” in each case. Also, the “increased sensitivity to high levels of ketones” value in the test on RCC4 renal carcinoma was “not found”. For the same molecule, the growth inhibitory effect entry in the test with glioma cell line A172 (setting [2]) and with glioma cell line U118MG (setting [2]) was “no growth inhibitory effect” in each case. The “number of cells, % of the amount in Medium B without BOHB” value in the test with glioma cell line A172 (Medium B, hypoxia, 16 mM BOHB) is on record as “approximately 70%”. The “number of cells, % compared to C-medium without BOHB” value in the test on glioma cell line A172 (setting [3]) and in the test on glioma cell line U118MG (setting [3]) was “around 30%” throughout. Further, the growth entry in the test with glioma cell line A172 (Medium C) is “trend of reduced growth”.
For `CC(=O)CC(=O)[O-].[Li+]` [Acac, Lithium Acetoacetate], the number of cells result in the test on glioma cell line A172 (setting [4]) was “did not reduce the number of cells further”; in the test with glioma cell line A172 (setting [5]) it was “reduced the number of cells significantly”; in the test on glioma cell line U118MG (setting [4]) it was “did not reduce the number of cells further”; in the test with glioma cell line U118MG (setting [5]), “reduced the number of cells significantly”. Besides, the amounts of cells entry in the test with glioma cell line A172 (setting [6]) and in the test with glioma cell line U118MG (setting [6]) was “did not significantly reduce the amounts of cells” throughout. Also, the growth entry with glioma cell line A172 (Medium C) is given as “trend of reduced growth”.
